“Also recorded” adds a separate entry of the source.
Legend:
[1] = system: CCND2 promoter; assay: CCND2 promoter-luciferase transactivation assay in NIH3T3 cells with or without c-maf; type: cell-based, mouse; settings: for effect on CCND2-luc expression, agent alone / effect on kinetin riboside-induced suppression of CCND2: NIH3T3 reporter cells; for effect on CCND2-luc expression, agent alone: 5 μM; for effect on CCND2-luc expression, agent alone / identified as putative inhibitor of CCND2 transactivation (screen hit): 16 hours; for effect on kinetin riboside-induced suppression of CCND2: with kinetin riboside; for identified as putative inhibitor of CCND2 transactivation (screen hit): ~5 μM, hit = 50% or more reduction in luciferase relative to cell viability
Experimental: Using this assay, Lopac (n=1280), Prestwick (n=1120), and Spectrum (n=2000) libraries of drugs and natural compounds were screened. In a parallel MTS assay, the effect of each compound on 3T3 viability was determined, allowing exclusion of compounds that caused secondary suppression of CCND2 due to non-specific cytotoxicity. […] These included monensin, patulin, β-lapachone, camptothecin, dihydrogambogic acid, gentian violet, thapsigargin, brefeldin A, pristimerin, and kinetin riboside.
Full-length c-maf cDNA was subcloned into an IRES-GFP MIEV retroviral vector and introduced into NIH3T3 cells by infection. Stable clones expressing GFP and c-maf were selected by flow cytometry and immunoblotting, respectively. The promoter of human cyclin D2 (−894 to −4; Brooks et al., J. Biol. Chem., 271, 9090-9 (1996)), containing c-maf responsive element sequence (MARE), was cloned from DNA from HeLa cells and inserted into the pGLbasic firefly luciferase vector (Promega, Madison, Wis.) immediately upstream of the luciferase gene. This construct was co-transfected with pcDNA3 (containing a neomycin resistance gene) into both NIH3T3 wild type cells and NIH3T3 cells stably over-expressing c-maf-IRES-GFP. Cells stably expressing c-maf, GFP, and luciferase were selected.
(§1) NIH3T3 cells stably expressing c-maf and the CCND2 promoter driving luciferase (13,000 cells per well) were plated in 96-well plates by a Biomek FX liquid handler (Beckman, Fullerton, Calif.). After the cells had adhered, they were treated with aliquots of molecules from LOPAC (Sigma, St. Louis, Mo.), Prestwick (Prestwick Chemical Inc, Illkirch, France) or Spectrum (Microsource Discovery Systems, Gaylordsville, Conn.) libraries of off-patent drugs and chemicals at a final concentration of ˜5 μM and <0.1% DMSO. Cells were incubated with compounds at 37° C. for 16 hours.
Luciferase assay. Luciferase activity was assessed according to the manufacturer's instructions (Promega, Madison, Wis.). Briefly, the cell culture medium was removed using an EMBLA plate washer (Molecular Devices, X) and Glo Lysis buffer (Promega) was added by robot. After a 10-minute incubation, an equal volume of Bright-Glo Luciferase substrate (Promega) was added, and luminescence signal was detected with a 96-well Luminoskan luminescence plate reader (Thermo Labsystem, Waltham, Mass.) using a 5 second integration.
Studies of kinetin riboside using 3T3-D2-luc cells. To examine CCND2 suppression induced by kinetin riboside, the reporter cells were exposed to kinetin riboside in combination with other drugs (all purchased from Sigma, St. Loius, Mo.) that influence CCND2 transcription or inhibit nucleoside transport or phosphorylation. NIH3T3 cells expressing the CCND2 promoter driving luciferase were incubated with kinetin riboside or vehicle control +/− forskolin, 4-(3-butoxy-4-methoxybenzyl)imidazolidin-2-one (BMBI), cantharadin, S-(4-Nitrobenzyl)-6-thioinosine (NBTI), or A-134974, as specified at 5 μM concentration for 16 hours at 37° C. […] Forskolin is a cell-permeable diterpenoid that activates adenylate cyclase resulting in increased cAMP concentration. BMBI (Sigma B8279) is an inhibitor of cAMP phosphodiesterase that also causes accumulation of cAMP. Cantharadin (C7632) is an inhibitor of protein phosphatase 2A and, from the library screen, mediates induction of CCND2. NBTI (Sigma N2255) is a potent adenosine uptake inhibitor, and A-134974 (Sigma A2846) is a selective inhibitor of adenosine kinase.
(§2) In an optimized automated assay, NIH3T3 cells over-expressing c-maf and the human cyclin D2 promoter driving luc were plated in 96-well plates by robot and following adhesion were treated for 16 hours with compounds at a final concentration of ˜5 μM and <0.1% DMSO. As a control, cells were treated with buffer alone. […] Thus, each compound from the library was tested in at least two assays—luciferase for CCND2 activity and MTS for viability. The coefficient of variance (CV) of the assay was <10%.

[2] = system: NIH3T3 cells; type: cell-based, mouse; settings: MTS
Experimental: as §1
(§3) Viability assay. The effects of screened compounds on cell viability was assessed by 3-(4,5-dimethyl[…])-5-(3-carboxymethoxyphenyl)-2-(4-sulfophenyl)-2-H-tetrazolium (MTS) assay according to the manufacture's instructions (Progmega, Madison, Wis.). MTS reagent (20 μL/well in 96 well plates) was added to cells, and these were then incubated at 37° C. for 4 hours. Absorbance at 490 nm was determined using a 96-well plate reader.
as §2

[3] = system: cyclin D1, cyclin D2, cyclin D3; assay: Immunoblot of cyclin D proteins in HMCL; type: cell-based, human; settings: A-134974 2 μM, kinetin riboside 10 μM
Experimental: (§4) Immunoblotting. Cytosolic extracts were prepared from HMCL or purified patient CD138^+ myeloma cells following exposure to kinetin riboside. Cells were washed with cold PBS, resuspended in cold RIPA buffer (5×10^6 cells/100 μL) containing fresh protease and phosphatase inhibitors (Santa Cruz Biotechnology, Santa Cruz, Calif.) and incubated on ice for 30 minutes with gentle mixing. The supernatant was repossessed following high speed centrifugation, and protein concentrations were determined by the Bradford assay. Immunoblot assays were performed as described elsewhere (Krajewski et al., Anal. Biochem., 236:221-228 (1996)). Briefly, equal amounts of protein were separated by SDS-PAGE and transferred to a PVDF nitrocellulose membrane using a semi-dry apparatus. Membranes were blocked using 5% skim milk in Tris buffered saline and probed with monoclonal mouse anti-cyclin D1 (DCS-6, Biosource, Camarillo, Calif.), polyclonal rabbit anti-cyclin D2 (#2924, Cell Signalling Technology), monoclonal mouse anti-cyclin D3 (DCS-22, BioSource), polyclonal rabbit anti-c-Maf (M-153, Santa Cruz), polyclonal rabbit anti-Cleaved Caspase 9 (Asp315) (Cell Signaling Technology), monoclonal mouse anti-β-actin (Cell Signaling Technology) and/or monoclonal anti-a-tubulin (B-7)(Santa Cruz Biotechnology, Santa Cruz, Calif.). Membrane proteins were visualized using HRP-conjugated species-specific secondary antibodies (Cell Signaling Technology) and enhanced chemiluminescence (Pierce, Rockford, Ill.).

[4] = system: caspase 9; assay: Immunoblot of caspase 9 cleavage in HMCL; type: cell-based, human; settings: A-134974 2 μM, kinetin riboside 10 μM
Experimental: as §4, with “Membrane proteins were visualized using HRP-conjugated species-specific secondary antibodies (Cell Signaling Technology) and enhanced chemiluminescence (Pierce, Rockford, Ill.).” left out

[5] = system: human myeloma cell lines (HMCL); assay: HMCL viability / cytotoxicity (MTT, MTS); type: cell-based
Experimental: Subsequent validation studies using selected compounds in human myeloma cell lines (HMCL) confirmed successful suppression of both cyclin D2 and D1 polypeptides. Each of these compounds was then shown to be cytotoxic to a genetically diverse and standardized panel of 14 HMCL in MTT assays: monensin (10-760 nM), camptothecin (5-700 nM), dihydrogambogic acid (250-800 nM), pristimerin (150-500 nM), and kinetin riboside (2.5-20 μM). Cell cycle analysis confirmed induction of G0/G1 phase arrest for most compounds, consistent with cyclin D inhibition.
as §3

[6] = system: HMCL; assay: Cell cycle profiling of HMCL by flow cytometry; type: cell-based, human; settings: Example 1, HMCL
Experimental: Cell cycle profiling. HMCL were incubated with drug or vehicle as indicated, washed and resuspended in 1 mL PBS. Ice cold ethanol was added dropwise to 75% with regular mixing, and suspensions were incubated at −20° C. for 1 hour. Cells were washed again with PBS and resuspended in 0.1 mL RNAse A (100 μg/mL) at room temperature for 5-10 minutes. Propidium iodide (200 μL×100 μg/mL) was added immediately prior to analysis by flow cytometry. Cellular aggregates were excluded using CellQuest Doublet Discriminator Module, and cell cycle profile was determined using ModFit LT Mac 3.1 SP2 (Verity Software House, TopSham, Me.).

[7] = system: CD138+ myeloma cells; assay: Unsorted myeloma patient bone marrow, flow cytometry: CD138+ myeloma cells; type: cell-based, human; settings: unsorted myeloma patient bone marrow samples
Experimental: (§5) Flow cytometry. HMCL were treated as indicated and then washed in cold phosphate-buffered saline (PBS) and resuspended in buffer containing AnnexinV-FITC and propidium iodide (BD Biosciences, San Jose, Calif.) for 15 minutes at room temperature. Cells (10^5) were subsequently diluted and analyzed immediately by flow cytometry (FACScan, BD Biosciences, San Jose, Calif.) using CellQuest software. Patient bone marrow specimens were prepared and analyzed in a similar fashion using AnnexinV-FITC and anti-CD138-PE (BD Biosciences, San Jose, Calif.).
(§6) As mouse embryos that lack any D-cyclins eventually die from hematopoietic failure (Kozar et al., Cell, 118, 477-91 (2004)), the bone marrow might be predicted to be one of the most sensitive non-malignant tissue to be affected by drugs targeting cyclin D expression. Unsorted bone marrow samples from myeloma patients were treated with kinetin riboside to assess the relative cytotoxicity of this drug on malignant versus non-malignant marrow cells. Bone marrow samples were first processed to remove non-nucleated red cells and were then treated for 48 hours with kinetin riboside (5 μM).

[8] = system: CD138− hematopoietic cells; assay: Unsorted myeloma patient bone marrow, flow cytometry: CD138- non-malignant cells; type: cell-based; settings: for toxicity for normal / non-malignant patient hematopoietic cells: patient bone marrow
Experimental: as §5, §6

## Nc1ncnc2c1c(I)cn2[C@@H]1C[C@H](N)[C@@H](O)[C@H]1O [A-134974]
[1]
  effect on CCND2-luc expression, agent alone: minimal enhancement
  effect on kinetin riboside-induced suppression of CCND2: completely inhibits
[2]
  effect on NIH3T3 viability: no effect on 3T3 cell viability
[3]
  effect on cyclin D1 and D2 levels in kinetin riboside-treated HMCL: partially rescues
[4]
  effect on kinetin riboside-induced caspase 9 cleavage in HMCL: prevents

## CCCCOc1cc(CC2CNC(=O)N2)ccc1OC (stereo not shown) [BMBI, 4-(3-butoxy-4-methoxybenzyl)imidazolidin-2-one]
[1]
  effect on CCND2-luc expression, agent alone: CCND2 transactivation

## O=[N+]([O-])c1ccc(CSc2ncnc3c2ncn3[C@@H]2O[C@H](CO)[C@@H](O)[C@H]2O)cc1 [NBTI, S-(4-Nitrobenzyl)-6-thioinosine]
[1]
  effect on kinetin riboside-induced suppression of CCND2: does not block kinetin riboside function

## CC[C@@]1(O)C[C@H](O[C@H]2C[C@H](N(C)C)[C@H](O)[C@H](C)O2)c2c(cc3c(c2O)C(=O)c2c(O)cccc2C3=O)[C@H]1C(=O)OC [aklavine]
[1]
  identified as putative inhibitor of CCND2 transactivation (screen hit): putative suppressors of CCND2
[2]
  effect on NIH3T3 viability: excess NIH3T3 cytoxicity

## C[C@H]1CCC/C=C/[C@@H]2C[C@H](O)C[C@H]2[C@H](O)/C=C/C(=O)O1 [brefeldin A]
[1]
  identified as putative inhibitor of CCND2 transactivation (screen hit): putative CCND2 inhibitors

## CC[C@@]1(O)C(=O)OCc2c1cc1n(c2=O)Cc2cc3ccccc3nc2-1 [camptothecin, reference compound]
[1]
  identified as putative inhibitor of CCND2 transactivation (screen hit): putative CCND2 inhibitors; also recorded: putative suppressors of CCND2
[5]; MTT assays, 14 HMCL
  cytotoxic concentration across panel of 14 HMCL: 5 to 700 nM
[6]
  cell cycle arrest phase: S-phase arrest

## C[C@@]12C(=O)OC(=O)[C@]1(C)[C@H]1CC[C@@H]2O1 [cantharadin]
[1]
  effect on CCND2-luc expression, agent alone: marked transactivation

## CC(C)=CCCC1(C)C=Cc2c(O)c3c(c(CC=C(C)C)c2O1)OC12C(=CC4CC1C(C)(C)OC2(C/C=C(/C)C(=O)O)C4O)C3=O (stereo not shown) [dihydrogambogic acid]
[1]; NIH3T3 CCND2-luc with or without c-maf
  suppression of CCND2 promoter in absence or presence of c-maf: c-maf independent specific suppression of the CCND2 promoter
[1]
  identified as putative inhibitor of CCND2 transactivation (screen hit): putative CCND2 inhibitors; also recorded: putative suppressors of CCND2
[5]; human
  cytotoxic concentration across panel of 14 HMCL: 250 to 800 nM
[7]
  activity against CD138+ myeloma cells compared with non malignant hematopoietic cells: selective activity

## CN(C)c1ccc(C(=C2C=CC(=[N+](C)C)C=C2)c2ccc(N(C)C)cc2)cc1 [gentian violet]
[1]
  identified as putative inhibitor of CCND2 transactivation (screen hit): putative CCND2 inhibitors; also recorded: putative suppressors of CCND2

## N[C@@H](Cc1ccc(N(CCCl)CCCl)cc1)C(=O)O [melphalan, reference compound]
[8]; 48 hours, kinetin riboside 5 μM
  effect on non-malignant CD138− marrow cells: killed proportionately more healthy CD138− marrow cells than malignant myeloma cells

## CC[C@@]1([C@@H]2O[C@@H]([C@H]3O[C@@](O)(CO)[C@H](C)C[C@@H]3C)C[C@@H]2C)CC[C@H]([C@]2(C)CC[C@]3(C[C@H](O)[C@@H](C)[C@@H]([C@@H](C)[C@@H](OC)[C@H](C)C(=O)O)O3)O2)O1 [monensin, reference compound]
[1]
  identified as putative inhibitor of CCND2 transactivation (screen hit): putative CCND2 inhibitors; also recorded: putative suppressors of CCND2
[5]; human
  cytotoxic concentration across panel of 14 HMCL: 10 to 760 nM
[8]
  toxicity for normal / non-malignant patient hematopoietic cells: almost equal toxicity for normal cells
[8]; listed as Monensin
  toxicity for normal / non-malignant patient hematopoietic cells: excessive non-specific toxicity

## N=C1C=CC(=C(c2ccc(N)cc2)c2ccc(N)cc2)C=C1 [pararosaniline pamoate]
[1]
  identified as putative inhibitor of CCND2 transactivation (screen hit): putative suppressors of CCND2

## C/C=C(/C)C(=O)O[C@H]1C(C)=C2[C@H]([C@@H]1OC(=O)CCCCCCC)[C@@](C)(OC(C)=O)C[C@H](OC(=O)CCC)[C@@]1(O)[C@H]2OC(=O)[C@@]1(C)O [thapsigargin]
[1]
  identified as putative inhibitor of CCND2 transactivation (screen hit): putative CCND2 inhibitors

## CC1(C)CCC2=C(O1)c1ccccc1C(=O)C2=O [β-lapachone, reference compound]
[1]
  identified as putative inhibitor of CCND2 transactivation (screen hit): putative CCND2 inhibitors
[6]
  cell cycle arrest phase: S-phase arrest

— patent US8822440B2, “Inhibiting cyclin D polypeptides” (Mayo Foundation for Medical Education and Research, priority 2006, dated 2014)
